In EP1038880B1, “Androstanes and pregnanes for allosteric modulation of GABA receptor” (priority 1994, dated 1995):
Values joined by “and” are separate entries in the source; they are usually repeats but may differ in a detail not shown here. Identical values can stand only once.

Assays:
GR complex = assay: [35S]TBPS binding assay (inhibition of [35S]TBPS binding, cerebral cortex P2 homogenate); parameters: species or system rat; settings: for IC50: 2 nM [35S]TBPS, rat cerebral cortex P2 homogenate; for IMAX: maximum inhibition of [35S]TBPS binding
Method in brief: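 Rat (male Sprague-Dawley) cortical P2 homogenate (0.5 mg protein) in 50 mM Na/K phosphate pH 7.4, 200 mM NaCl, incubated with 2 nM [35S]TBPS plus steroid test compounds (DMSO) in presence of GABA plus (+)bicuculline, 25°C, 90 min. Filtration, scintillation counting; nonspecific binding defined with […].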

[1] = test system: N.I.H. Swiss-Webster mice; assay: Elevated plus-maze; format: in vivo; settings: for response vs control in vivo at 10 mg/kg: Mus musculus, ip, read-out: % Control; for % Control: PO, 10 mg/kg, water
From the text: The theoretical basis for the elevated plus-maze test is similar to that of the light/dark transition test. […] The apparatus consists of two open-arms and two enclosed-arms. The elevated plus-maze test allows for two measures of anxiety, the number of entries into the open-arms and the time spent on the open-arms, both expressed as a percentage of the total number of entries and time spent in/on both the open-arms and enclosed-arms.
Male N.LH. Swiss-Webster mice (Harlan, Indianapolis, IN) weighing 15-20 g were housed four per cage in polyethylene cages with sawdust bedding. The colony mom was environmentally controlled (22°C) with a 12^- hr light/dark cycle (0600-1800 hr). Food and water were available ad libitum, except during testing. The experiments were run from 0700-1500 hr and groups were counterbalance for time of day effects. Mice were only administered drug or vehicle once.
The apparatus included two open arms perpendicular to two enclosed arms elevated 50 cm from the floor. Each arm was 50 cm long and the walls of the enclosed arms were 40 cm tall. The maze was made completely of black plexiglass. Incandescent 200 W light bulbs were above each of the open arms to produce a strong contrast between the open arms and the enclosed arms.
Ten minutes after an injection, the N.I.H. Swiss-Webster mice were placed in the center of the plus-maze facing an open arm. During the 5 min test period, the number of entries onto the open arms and the enclosed arms, and the time spent in the open arms and enclosed arms were measured. All four paws had to be within an arm for the dependent variable to be measured. Therefore, the time spent in the center of the maze is not counted, so the total time spent in the open arms and the enclosed arms may not equal 5 min.

[2] = test system: metrazol induced convulsions; assay: animal or person; format: in vivo, mice; settings: for responders at 10 mg/kg: 10 min, 10 minutes prior to metrazol (85 mg/kg)
Experimental: Experiments were also performed to determine the physiological relevance of neuroactive steroid and GABA receptor interactions by assessing the ability of the compounds of and used in the invention to prevent metrazol induced convulsions in mice. Mice were injected with various doses of the test compounds of the invention, 10 minutes prior to the injection of metrazol. The time to onset of myoclomis (presence of forelimb clonic activity) induced by metrazol was determined by observing each mouse for a period of 30 minutes. […] Table 6: Antimetrazol Activity of Neuroactive Steroids in Mice
The anticonvulsant tests are similar to that described above. […] The number of animals with tonic and/or clonic convulsions was recorded. In the maximal electroshock test, 50 mA of current at 60 Hz was delivered through corneal electrodes for 200 msec to induce tonic seizure. The ability of compounds to abolish the tonic component was defined as the endpoint. General CNS depression potential was determined by a rotorod test 10 minutes after the injection of compounds where the number of mice staying on a rotating (6 rpm) rod for 1 minute in one of the three trials was determined. […] Table 7. Anticonvulsant Activity of Exemplified Neuroactive Steroids and those of Selected Clinically Useful Anticonvulsants in Mice

[3] = Mus musculus, IP, 10 mg/kg, read-out: % Protected

SMILES | IC50 (GR complex) | IMAX (GR complex) | response vs control in vivo at 10 mg/kg [1] [%] | responders at 10 mg/kg [2, 3] [%] | other results
CC(=O)[C@H]1CC[C@H]2[C@@H]3CC[C@@H]4C[C@@](O)(C#CCCCO)CC[C@]4(C)[C@H]3CC[C@]12C [3β-(5'-hydroxy-1'-pentynyl)-3α-hydroxy-5β-pregnan-20-one] | 58 nM | 100% | 137 | 12.5 | 
CC(=O)c1ccc(C#C[C@@]2(O)CC[C@@]3(C)[C@H](CC[C@@H]4[C@@H]3CC[C@]3(C)[C@@H](C(C)=O)CC[C@@H]43)C2)s1 [3β-(5-Acetylthien-2-yl)ethynyl-3α-hydroxy-5β-pregnan-20-one] | 52 nM | 89% | 83 | 25 | 
C[C@@]1(O)CC[C@@]2(C)[C@@H](CC[C@@H]3[C@@H]2CC[C@]2(C)[C@@H](C(=O)Cn4ccnc4)CC[C@@H]32)C1 [3α-hydroxy-21-(1'-imidazolyl)-3β-methyl-5α-pregnan-20-one] | 97 nM | 95% | 144 | 75 | 
CC(=O)OCCCC#C[C@@]1(O)CC[C@@]2(C)[C@H](CC[C@@H]3[C@@H]2CC[C@]2(C)[C@@H](C(C)=O)CC[C@@H]32)C1 [3β-(5'-Acetoxy-1'-pentynyl)-3α-hydroxy-5β-pregnan-20-one] | 96 nM | 98% |  | 12.5 | 
C#C[C@@]1(O)CC[C@@]2(C)[C@H](CC[C@@H]3[C@@H]2CC[C@]2(C)[C@@H](C(=O)Cn4ccnc4)CC[C@@H]32)C1 [3β-ethynyl-3α-hydroxy-21-(1'-imidazolyl)-5β-pregnan-20-one] | 80 nM | 103% | 179 | 50 | 
CC(=O)[C@H]1CC[C@H]2[C@@H]3CC[C@@H]4C[C@@](O)(C#CCn5cccn5)CC[C@]4(C)[C@H]3CC[C@]12C [3α-hydroxy-3β-[3-(1'H-pyrazol-1'-yl)-1-propynyl]-5β-pregnan-20-one] | 81 nM | 98% | 116 | 25 | 
CC(=O)c1ccc(C#CC2(O)CCC3(C)C(CCC4C3CCC3(C)C(C(=O)COC(=O)CCC(=O)[O-])CCC43)C2)cc1.[Na+] (stereo not drawn) [3β-(4'-Acetylphenylethynyl)-3α,21-dihydroxy-5β-pregnan-20-one 21-hemisuccinate sodium salt] |  |  |  |  | % Control [1]: 248%; % Protected ([2]; PO, 10 mg/kg, water): 75%
CC(=O)[C@H]1CC[C@H]2[C@@H]3CC[C@@H]4C[C@@](O)(C#Cc5ccc(C#N)cc5)CC[C@]4(C)[C@H]3CC[C@]12C [3β-(4'-Cyanophenyl)ethynyl-3α-hydroxy-5β-pregnan-20-one] | 73 nM | 92% | 169 | 43.7 | 
C[C@@]1(O)CC[C@@]2(C)[C@@H](CC[C@@H]3[C@@H]2CC[C@]2(C)[C@@H](C(=O)CSS(=O)(=O)[O-])CC[C@@H]32)C1.[Na+] [sodium S-(3α-hydroxy-3β-methyl-5α-pregnan-20-on-21-yl) thiosulfate] | 151 nM | 101% | 125 | 62.5 | 
C#C[C@@]1(O)CC[C@@]2(C)[C@H](CC[C@@H]3[C@@H]2CC[C@]2(C)[C@@H](C(=O)Cn4cccn4)CC[C@@H]32)C1 [3β-ethynyl-3α-hydroxy-21-(1'-pyrazolyl)-5β-pregnan-20-one] | 106 nM | 99% | 180 | 62.5 | 
C[C@@]1(O)CC[C@@]2(C)[C@@H](CC[C@@H]3[C@@H]2CC[C@]2(C)[C@@H](C(=O)Cn4cncn4)CC[C@@H]32)C1 [3α-Hydroxy-3β-methyl-21-(1',2',4'-triazolyl)-5α-pregnan-20-one] | 125 nM | 105% | 153 | 87.5 | 
CC(=O)[C@H]1CC[C@H]2[C@@H]3CC[C@@H]4C[C@@](O)(C#Cc5cccs5)CC[C@]4(C)[C@H]3CC[C@]12C [3α-hydroxy-3β-(2'-thienyl)ethynyl-5β-pregnan-20-one] | 59 nM | 100% | 148 | 37.5 | 
CC(=O)[C@H]1CC[C@H]2[C@@H]3CC[C@@H]4C[C@@](O)(C#CCCCC#N)CC[C@]4(C)[C@H]3CC[C@]12C [3β-(5-Cyano-1-pentynyl)-3α-hydroxy-5β-pregnan-20-one] | 158 nM | 100% |  | 25 | 
CC(=O)[C@H]1CC[C@H]2[C@@H]3CC[C@@H]4C[C@@](O)(C#Cc5ccc(C)cc5)CC[C@]4(C)[C@H]3CC[C@]12C [3α-hydroxy-3β-(4'-methylphenylethynyl)-5β-pregnan-20-one] | 88 nM | 84% | 148 | 75 | 
CC(=O)C1CCC2C3CCC4CC(O)(C#CCC(C)O)CCC4(C)C3CCC12C (racemic) [3β-[4'(R/S) hydroxypentynyl]-3α-hydroxy-5β-pregnan-20-one] | 71 nM and 94 nM | 103% and 104% |  | 87.5 | 
C[C@@]1(O)CC[C@@]2(C)[C@@H](CC[C@@H]3[C@@H]2CC[C@]2(C)[C@@H](C(=O)Cn4cccn4)CC[C@@H]32)C1 [3α-hydroxy-21-(1'-pyrazolyl)-3β-methyl-5α-pregnan-20-one] | 115 nM | 98% | 154 | 87.5 | 
CC(=O)[C@H]1CC[C@H]2[C@@H]3CC[C@@H]4C[C@@](O)(C#CCn5ccnn5)CC[C@]4(C)[C@H]3CC[C@]12C [3α-Hydroxy-3β-[3-(1'H-1,2,3-triazol-1'-yl)-1-propynyl]-5β-pregnan-20-one] | 655 nM | 102% | 116 | 25 | 
C[C@]12CC[C@](O)(C#CCCO)C[C@H]1CC[C@@H]1[C@@H]2CC[C@]2(C)[C@@H](C(=O)CSS(=O)(=O)O)CC[C@@H]12 [sodium S-[3α-hydroxy-3β-(4'-hydroxybutynyl)-5β-pregnan-20-on-21-yl] thiosulfate] | 107 nM | 97% | 135 |  | responders at 40 mg/kg ([2]; Mus musculus, PO, 40 mg/kg, water, read-out: % Protected): 33.3%
CC(=O)C1CCC2C3CCC4CC(OC(=O)C(C)C)CCC4(C)C3CCC12C (centres unmarked) [Example 2-Propyl] |  |  |  |  | % Protection ([2]; 60 mg/kg, 1hr, IP): 75%
CC(=O)c1ccc(C#C[C@@]2(O)CC[C@@]3(C)[C@@H](CC[C@@H]4[C@@H]3CC[C@]3(C)[C@@H](C(=O)COC(=O)CCC(=O)[O-])CC[C@@H]43)C2)cc1.[Na+] [3β-(4'-Acetylphenylethynyl)-3α,21-dihidroxy-5α-pregnan-20-one 21-hemisuccinate sodium salt] |  |  |  |  | % Control [1]: 166%; % Protected ([2]; PO, 10 mg/kg, water): 80%
CC12CCC3C4CCC(O)(C(F)(F)F)CC4CCC3C1CCC2C(=O)CSS(=O)(=O)[O-].[Na+] (stereo not drawn) [Sodium S-(3α-hydroxy-3β-trifluoromethyl-5β-19-norpregnan-20-on-21-yl) thiosulfate] | 325 nM | 98% |  |  | % Protected ([2]; IP, 40 mg/kg, water): 37.5%
CC(=O)C1CCC2C3CCC4CC(O)(C#CC(C)O)CCC4(C)C3CCC12C (racemic) [3β-[3'(R/S)-hydroxy-1'-butynyl]-3α-hydroxy-5α-pregnan-20-one] | 144 nM and 202 nM | 99% and 102% |  | 50 | 
CC(=O)[C@H]1CC[C@H]2[C@@H]3CC[C@@H]4C[C@@](O)(C#CCOc5ccncc5)CC[C@]4(C)[C@H]3CC[C@]12C [3α-Hydroxy-3β-[3-(4'-pyridinyloxy)-1-propynyl]-5β-pregnan-20-one] | 465 nM | 94% |  | 12.5 | 
CCCCC(=O)OC1CCC2(C)C(CCC3C2CCC2(C)C(C(C)=O)CCC32)C1 (centres unmarked) [Butyl] |  |  |  |  | % Protection ([2]; mouse, in vivo): 33%
